Results: US9107879B1, “Methods of increasing the cytotoxicity of chemotherapeutic agents with multisubstrate inhibitors of histone, protein-lys, polyamine acetylation, and polyamine metabolism” (Vanderbilt University, priority 2010, dated 2015)

Key:
H358 cells = experiment: nucleotide excision repair assay (thymidine dimer slot blot); assay type: cell-based; settings: 40 J/m2 UVC then 50 μM 1a; within 24 hours (untreated cells 50%)
Experimental: Also shown are controls for no treatment (“c” minus 1a) or treatment with 1a only (“c” plus 1a). Each lane represents 60 μg protein. […] Each lane represents 60 μg protein.
For NER, a slot blot immunoassay was used to detect the loss of thymidine dimers from the DNA of UVC treated cells as previously described. An antibody specific for cyclobutane pyrimidine dimers, the major photoproduct produced by UVC treatment, was purchased from Kamiya Biomedical Co(Seattle, Wash.; anti-thymidine dimer, clone KTM53) and used at 1:40 dilution.
DNA repair can promote cell survival following DNA damage. Nucleotide excision repair (NER), which requires histone acetylation (Cazzalini et al., 2008, 36: 1713-22) removes bulky DNA adducts such as the intrastrand guanine-adenine crosslinks caused by cisplatin or the intrastrand thymidine dimers produced by UVC radiation. We assayed NER in the presence or absence of 50 μM 1a using an immunoblot analysis of thymidine dimers in cellular DNA prepared from cells at fixed times after exposure to 40 J/m^2UVC radiation. […] The results support a model in which acetylation of the core histones, accompanied by localized relaxation of chromatin structure, may be necessary to initiate DNA repair, possibly by allowing access of DNA to multiprotein repair complex involved in nucleotide excision repair, or by promoting recruitment of those factors. […]

MCF7 breast cancer cells = settings: 1a increasing concentrations; camptothecin 5 nM 18 hour
Experimental: (A) [^3H]-thymidine incorporation into DNA of H358 cells (left panel) or MCF-7 cells (right panel) during a 6 hour pulse ending at the indicated time points after initiation of treatment. Treatments were 50 μM 1a alone, 5 nM camptothecin alone (CPT, 18 hours), 50 μM 1a+5 nm CPT (18 hours). Control cells were left untreated. (B) 2-day 96-well viability assays of H358 cells (left panel) or MCF-7 cells (right panel) grown in presence of increasing concentrations of 1a (continuous), with or without an 18-hour treatment with 5 nM camptothecin (CPT). Cell viability, represented as a percent of untreated cell viability (i.e., no 1a, no CPT), was determined 2 days post-start of treatment by the MTS bioconversion assay (MTS=(3-(4,5′-dimethylthiazol-2-yl)-5-(3-carboxymethoxylphenyl-2-(4-sulfophenyl)-2H-tetrazolium salt). Each data point represents the average of triplicate wells. Assays were carried out under conditions such that untreated cells remained in exponential growth. (C) [^3H]-thymidine incorporation into DNA of H358 cells carried out as in part “A”. Treatment consisted of 1a alone (50 μM), or cisplatin (2 μM, 1 hour, 15 minutes) alone or together with 1a (Panel 1); or UVC (40 J/m^2), alone or together with 1a (Panel 2); or 5-fluorouracil (5FU, 2 μM, 18 hours) alone or together with 1a (Panel 3), or Taxotere™ (5 nM, 18 hours), alone or together with 1a (Panel 4). Control cells were left untreated. Symbols are as follows: (-◯-) untreated control; (-●-) 50 μM 1a, (-∇-) drug or UVC alone; (-▾-) combination 1a+drug or UVC.
Viability was measured 3 days after the start of treatment and is expressed as a percentage of control (untreated) cell viability.
Each point is average of triplicates.
Date of exp: 7-17-2010; located p.21 in Hat notebook: KB-2 (2010-2011).
Cells were plated in 96-well plates (3000 cells per well) and incubated 18 hours with or without 5 nM camptothecin (Sigma, St Louis, Mo.). Triplicate wells were then treated with varying doses of 1a (from 0-50 μM). Control cells received neither 1a nor camptothecin. 2-day viability was determined by the MTS assay as previously (Saadatmandi et al., 2002, Cancer Gene Therapy, 9: 830-9) and expressed as a percentage of control cell viability.
The present inventors carried out 96-well viability assays as we have previously described (Saadatmandi et al, Cancer Gene Therapy (2002) 9:830-9), in which MCF7 breast cancer cells were plated at 3000 cells per well. After overnight attachment, triplicate wells were treated with increasing doses of inhibitor 1a. Control wells were left untreated. After 3 days, cell viability was measured by the MTS assay, which measures the bioconversion of an uncolored substrate to a colored formazan derivative, and is proportional to cell number. […]

Row | Compound | decrease of thymidine dimers in DNA (H358 cells) | 2-day cumulative cell viability relative to untreated, single agent (MCF7 breast cancer cells)
1 | CC(C)(COP(=O)(O)OP(=O)(O)OC[C@H]1O[C@@H](n2cnc3c(N)ncnc32)[C@H](O)[C@@H]1OP(=O)(O)O)[C@@H](O)C(=O)NCCC(=O)NCCSCC(=O)NCCCNCCCCN [1a, spermidine[N1]-CoA] | 40% | –
2 | CC[C@@]1(O)C(=O)OCc2c1cc1n(c2=O)Cc2cc3ccccc3nc2-1 [camptothecin] | – | no effect
